In ChEMBL document CHEMBL3797153, “Discovery of acyl guanidine tryptophan hydroxylase-1 inhibitors” (Bioorg Med Chem Lett, 2016):
Converted amounts (≈) assume the structure as drawn.

Experiments:
[1] = Kinetic aqueous solubility in pH 7.4 50 mM phosphate buffer; format: physicochemical; conditions: read-out: Kinetic_solubility
[2] = Protein binding in rat plasma by equilibrium dialysis; format: ADME, cell-free; conditions: read-out: PPB (converted)
[3] = test system: Mus musculus; assay: In-vivo inhibition of TPH1 in mouse assessed as 5-HT level in intestinal mucosa at 150 mg/kg, po administered as single dose relative to control; format: functional; set-up: scale not given: the % may be the effect or the level left

COc1cccc(Oc2cccc(N3CCCCC3)c2CN/C(N)=N/C(=O)c2ccc(C[C@H](N)C(=O)O)cc2)c1
solubility kinetic [1]: > 40 µM
fraction unbound [2]: 0.12

CCOC(=O)[C@@H](N)Cc1ccc(C(=O)/N=C(\N)NCc2c(Oc3ccccc3)cccc2N2CCCCC2)cc1
Activity [3]: 62%

N/C(=N\C(=O)c1ccc(C[C@H](N)C(=O)O)cc1)NCc1cc(-c2ccccc2)ccc1N1CCCCC1
solubility kinetic [1]: 16 µM (≈ 7.99 µg/mL)

Cc1cccc(N2CCCCCC2)c1CN/C(N)=N/C(=O)c1ccc(C[C@H](N)C(=O)O)cc1
solubility kinetic [1]: 40 µM (≈ 18.1 µg/mL)
Activity [3]: 72%

N/C(=N\C(=O)c1ccc(C[C@H](N)C(=O)O)cc1)NCc1c(Oc2ccccc2)cccc1N1CCCCC1
Activity [3]: 80%

CCOC(=O)[C@@H](N)Cc1ccc(C(=O)/N=C(\N)NCc2c(C)cccc2N2CCCCCC2)cc1
Activity [3]: 62%

Nc1nc(OC(c2ccc(-c3cccc(F)c3)cc2)C(F)(F)F)cc(-c2ccc(C[C@H](N)C(=O)O)cc2)n1 (stereo not given in full)
solubility kinetic [1]: 2.1 µM (≈ 1.11 µg/mL)
fraction unbound [2]: < 0.001
